Source: patent US20230080054A1 (ILDONG PHARMACEUTICAL CO., LTD., priority 2021, published 2023)

Molecular target: T1, human ANO6 (Homo sapiens, UniProt Q4KMQ2)
T1 construct: expressed in transfected cells
T1 sequence (Q4KMQ2 1-931 isoform Q4KMQ2-2): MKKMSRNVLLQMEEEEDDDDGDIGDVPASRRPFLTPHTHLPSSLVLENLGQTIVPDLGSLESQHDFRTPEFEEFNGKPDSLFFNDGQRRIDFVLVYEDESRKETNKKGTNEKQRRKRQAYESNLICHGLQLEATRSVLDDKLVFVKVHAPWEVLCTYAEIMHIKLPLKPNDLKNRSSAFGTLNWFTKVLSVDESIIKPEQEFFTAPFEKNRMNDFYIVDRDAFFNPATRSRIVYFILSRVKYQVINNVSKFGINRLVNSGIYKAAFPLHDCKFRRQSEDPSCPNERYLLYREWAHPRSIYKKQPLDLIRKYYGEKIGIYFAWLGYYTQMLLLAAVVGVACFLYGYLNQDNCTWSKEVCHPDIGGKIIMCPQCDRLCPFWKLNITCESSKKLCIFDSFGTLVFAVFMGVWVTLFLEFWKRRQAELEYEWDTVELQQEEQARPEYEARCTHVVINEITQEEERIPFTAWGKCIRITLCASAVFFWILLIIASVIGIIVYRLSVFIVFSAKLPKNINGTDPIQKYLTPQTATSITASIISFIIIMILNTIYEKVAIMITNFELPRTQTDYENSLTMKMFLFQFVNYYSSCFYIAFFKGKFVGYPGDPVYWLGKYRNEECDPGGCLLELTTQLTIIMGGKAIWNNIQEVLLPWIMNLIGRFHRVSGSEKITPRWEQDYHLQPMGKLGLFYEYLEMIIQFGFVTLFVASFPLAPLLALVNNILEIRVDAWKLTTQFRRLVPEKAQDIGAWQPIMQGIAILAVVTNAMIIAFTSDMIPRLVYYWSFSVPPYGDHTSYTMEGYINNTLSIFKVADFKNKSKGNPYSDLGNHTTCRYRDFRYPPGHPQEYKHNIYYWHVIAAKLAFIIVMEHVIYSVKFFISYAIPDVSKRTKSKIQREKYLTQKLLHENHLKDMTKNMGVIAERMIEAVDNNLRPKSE
Assay: LACT C2 assay (phosphatidylserine scramblase function assay)
Format: cell-based
Conditions: FRT cells expressing human ANO6, 10 μM ionomycin; for inhibition at 0.1 µM: test compound 100 nM, read-out: Inhibition Level 100 nM; for inhibition at 1 µM: test compound 1 μM, read-out: Inhibition Level 1 μM
Description: Phosphatidylserine Scramblase Function Assay
1. Materials and Instruments
Ionomycin (Alomonelab, cat. #I-700), DAPI (Sigma-Aldrich, cat. #D8417), paraformaldehyde (Biosesang, cat. #P2031), Lionheart FX Automated Microscope (BioTek, Winooski), Python3 (Python Software Foundation), and OpenCV (Open Source Computer Vision Library).
Fisher rat thyroid (FRT) cells stably expressing human ANO6 (GenBank accession no. NP_001191732.1, provided by J. H. Nam, Dongguk University College of Medicine, Korea) were grown in DMEM/Ham's F-12 (1:1) medium with 10% FBS, 2 mM L-549 glutamine, 100 units/mL penicillin, and 100 μg/mL streptomycin at 37° C. and 5% CO2.
FRT cells stably expressing human ANO6 were plated in 96 well black-walled microplates at a density of 2×10^4 cells/well. After 24 hours incubation, cells were treated with the test compound (dissolved in DMSO) were treated to each well to become 1% v/v DMSO for 10 minutes, then 10 μM of ionomycin was applied. Finally each well was washed with 200 μL PBS after 10 minutes. After washout, the phosphatidylserine and nuclei were stained with PBS containing 500 nM Lactadherin-C2 (Lact-C2)-GFP, then cells were washed with 200 μL PBS. Cells were fixed with 4% paraformaldehyde for 5 minutes at room temperature. For morphological analysis, some cells were stained with fluorescently labelled DAPI for 15 minutes at room temperature. Quantitative analysis of the fluorescence intensity of Lact-C2-GFP was performed with Python3 and OpenCV. OpenCV was used to remove background and noise pixels, and the sum of all remaining pixel values was used to evaluate the fluorescence intensity of Lact-C2-GFP.
The inhibitory activity (%) of each of the test compounds was obtained by the following steps. In each row of 96 well plate, the inhibitory activity of each of the test compounds was calculated as percentages. The inhibitory activity of a negative control group to which neither compounds nor ionomycin were treated was set to be 100%, and the inhibitory activity of a positive control group to which ionomycin was treated and compounds were not treated was set to be 0%. The assay was performed in triplicate, and the results were averaged.

inhibition at 0.1 µM | inhibition at 1 µM | Compound
< 30% | 30 to 60% | O=C(NCc1ccccc1Cl)c1cccc(Nc2ncc(-c3cccc(F)c3)cn2)c1 [Compound A98]
< 30% | 30 to 60% | O=C(NCc1ccc(F)c(F)c1)c1cccc(Nc2ccc(-c3ccccc3)nn2)c1 [Compound 230, N-(3,4-difluorobenzyl)-3-((6-phenylpyridazin-3-yl)amino)benzamide]
< 30% | ≥ 60% | Cc1ccc(NC(=O)c2cccc(Nc3ncc(-c4cccc(F)c4)cn3)c2)cc1 [Compound A102]
< 30% | ≥ 60% | O=C(NCc1ccc(F)c(C(F)(F)F)c1)c1cccc(Nc2ccc(-c3ccccc3)nn2)c1 [Compound 195, N-(4-fluoro-3-(trifluoromethyl)benzyl)-3-((6-phenylpyridazin-3-yl)amino)benzamide]
< 30% | < 30% | Cc1ccc(CCNC(=O)c2cccc(Nc3ncc(-c4cccc(F)c4)cn3)c2)o1 [Compound 151, 3-((5-(3-fluorophenyl)pyrimidin-2-yl)amino)-N-(2-(5-methylfuran-2-yl)ethyl)benzamide]
< 30% | < 30% | O=C(O)c1ccc(CCNC(=O)c2cccc(Nc3ncc(-c4cccc(F)c4)cn3)c2)cc1 [Compound 130, 4-(2-(3-((5-(3-fluorophenyl)pyrimidin-2-yl)amino)benzamido)ethyl)benzoic acid]
< 30% | < 30% | COc1cc(CNC(=O)c2cccc(Nc3ccc(-c4ccccc4)nn3)c2)ccc1F [Compound 232, N-(4-fluoro-3-methoxybenzyl)-3-((6-phenylpyridazin-3-yl)amino)benzamide]
< 30% |  | O=C(NC1CCCCCC1)c1cccc(Nc2ncc(-c3cccc(F)c3)cn2)c1 [Compound A94]
< 30% | 30 to 60% | O=C(NCc1ccc(Cl)cc1)c1cccc(Nc2ncc(-c3cccc(F)c3)cn2)c1 [Compound A101]
< 30% | < 30% | O=C(O)c1cccc(CCNC(=O)c2cccc(Nc3ncc(-c4cccc(F)c4)cn3)c2)c1 [Compound 129, 3-(2-(3-((5-(3-fluorophenyl)pyrimidin-2-yl)amino)benzamido)ethyl)benzoic acid]
< 30% | 30 to 60% | O=C(NCc1c(F)cc(F)cc1F)c1cccc(Nc2ncc(-c3cccc(F)c3)cn2)c1 [Compound 205, 3-((5-(3-fluorophenyl)pyrimidin-2-yl)amino)-N-(2,4,6-trifluorobenzyl)benzamide]
30 to 60% | ≥ 60% | O=C(N[C@@H]1C[C@H]1c1ccccc1)c1cccc(Nc2ncc(-c3ccoc3)cn2)c1 [Compound 157, 3-((5-(furan-3-yl)pyrimidin-2-yl)amino)-N-((1R,2S)-2-phenylcyclopropyl)benzamide]
< 30% | < 30% | Cc1ccccc1CNC(=O)c1cccc(Nc2ncc(-c3cccc(F)c3)cn2)c1 [Compound A99]
< 30% | ≥ 60% | O=C(Nc1cccc([N+](=O)[O-])c1)c1cccc(Nc2ncc(-c3cccc(F)c3)cn2)c1 [Compound 137, 3-((5-(3-fluorophenyl)pyrimidin-2-yl)amino)-N-(3-nitrophenyl)benzamide]
< 30% | < 30% | Nc1ccccc1CCNC(=O)c1cccc(Nc2ncc(-c3cccc(F)c3)cn2)c1 [Compound 148, N-(2-aminophenethyl)-3-((5-(3-fluorophenyl)pyrimidin-2-yl)amino)benzamide]
< 30% |  | O=C(Nc1ccc2c(c1)CNC2)c1cccc(Nc2ncc(-c3cccc(F)c3)cn2)c1 [Compound 192, 3-((5-(3-fluorophenyl)pyrimidin-2-yl)amino)-N-(isoindolin-5-yl)benzamide]
< 30% | < 30% | CC(NC(=O)c1cccc(Nc2ccc(-c3ccccc3)nn2)c1)c1ccc(F)cc1 (stereo not drawn) [Compound 233, N-(1-(4-fluorophenyl)ethyl)-3-((6-phenylpyridazin-3-yl)amino)benzamide]
< 30% | 30 to 60% | CN(CCCNC(=O)c1cccc(Nc2ccc(-c3ccccc3)nn2)c1)Cc1ccccc1 [Compound A95]
< 30% | < 30% | N#CC(NC(=O)c1cccc(Nc2ccc(-c3ccccc3)nn2)c1)c1ccc(F)cc1 (stereo not drawn) [Compound 212, N-(cyano(4-fluorophenyl)methyl)-3-((6-phenylpyridazin-3-yl)amino)benzamide]
< 30% | < 30% | CN1CCN(c2ccc(CNC(=O)c3cccc(Nc4ccc(-c5ccccc5)nn4)c3)cc2)CC1 [Compound 197, N-(4-(4-methylpiperazin-1-yl)benzyl)-3-((6-phenylpyridazin-3-yl)amino)benzamide]
< 30% | 30 to 60% | O=C(NC1(c2ccc(F)cc2)CC1)c1cccc(Nc2ccc(-c3ccccc3)nn2)c1 [Compound 196, N-(1-(4-fluorophenyl)cyclopropyl)-3-((6-phenylpyridazin-3-yl)amino)benzamide]
< 30% | < 30% | Cc1cc(CNC(=O)c2cccc(Nc3ccc(-c4ccccc4)nn3)c2)ccc1F [Compound 231, N-(4-fluoro-3-methylbenzyl)-3-((6-phenylpyridazin-3-yl)amino)benzamide]
< 30% | < 30% | Nc1cccc(CCNC(=O)c2cccc(Nc3ncc(-c4cccc(F)c4)cn3)c2)c1 [Compound 147, N-(3-aminophenethyl)-3-((5-(3-fluorophenyl)pyrimidin-2-yl)amino)benzamide]
< 30% | ≥ 60% | Cc1cc(F)ccc1CNC(=O)c1cccc(Nc2ccc(-c3ccccc3)nn2)c1 [Compound 210, N-(4-fluoro-2-methylbenzyl)-3-((6-phenylpyridazin-3-yl)amino)benzamide]
< 30% | 30 to 60% | Nc1ccc(NC(=O)c2cccc(Nc3ccc(-c4cccc(F)c4)cn3)c2)cc1 [Compound 146, N-(4-aminophenyl)-3-((5-(3-fluorophenyl)pyridin-2-yl)amino)benzamide]
< 30% | 30 to 60% | Cc1ccc(CNC(=O)c2cccc(Nc3ncc(-c4cccc(F)c4)cn3)c2)c(C)c1 [Compound 206, N-(2,4-dimethylbenzyl)-3-((5-(3-fluorophenyl)pyrimidin-2-yl)amino)benzamide]
30 to 60% | ≥ 60% | O=C(N[C@@H]1C[C@H]1c1ccc(Cl)c(F)c1)c1cccc(Nc2ccc(-c3ccccc3)nn2)c1 [Compound 221, N-((1R,2S)-2-(4-chloro-3-fluorophenyl)cyclopropyl)-3-((6-phenylpyridazin-3-yl)amino)benzamide]
< 30% | 30 to 60% | O=C(N[C@@H]1C[C@H]1c1ccccc1)c1cccc(Nc2nnc(-c3ccccc3)o2)c1 [Compound 159, 3-((5-phenyl-1,3,4-oxadiazol-2-yl)amino)-N-((1R,2S)-2-phenylcyclopropyl)benzamide]
